# Test results taken from patent publication US8877720B2, “Epirubicin derivatives” (Tianjin Hemay Bio-Tech Co., Ltd., priority 2009, dated 2014).
# Like-named read-outs stand apart in the source and are kept apart here.
# What was measured:
# [1] = tested on: HL-60 cells; assay: Cytotoxicity assay (MTS/MTT), HL-60 cells; assay type: cell-based, human; conditions: for Inhibition Ratio (%): HL-60 cells, concentration of 1 μM
# Protocol: (§1) Cytotoxicity Assay (MTS Assay)
# HL-60: human leukemia cell strains
# (§2) Cells were inoculated in RPMI 1640 cell culture solution with 10% fetal bovine serum (supplemented with 100 ku/L of penicillin, streptomycin, respectively). The petri dishes were left in a cell incubator containing 5% CO2 under the temperature of 37° C. The medium was changed every 2-3 days, and was digested with 0.25% trypsin solution. The cells were subcultured and collected.
# (§3) The cells in the exponential phase were formulated into cell suspensions with desired concentrations using RPMI 1640 cell culture solutions containing 10% fetal bovine serum. The suspensions were added into 96-well cell culture plates according to 3,000-5,000 cells per well (100 μl). After being cultured for 24 hr, 100 μl of assay compounds having different concentrations were added into each well. Four parallel tests were conducted for each well. The supernatants were discarded after being cultured for 72-120 hr. 100 μl of 0.5 mg/ml MTT fresh serum-free culture solutions were added into each well. The resultant supernatants were discarded after being cultured for 4 hr at 37° C. Formazan was dissolved with 200 μl DMSO. The resulting mixture was gently shaken for 15 min. Optical absorption values (OD-values) at 570 nm of detection wavelength and 450 nm of reference wavelength were measured with ELISA reader.
# (§4) The data were represented by x±s. Inhibition Ratio=(OD values in control groups−OD values in administration groups)/OD values in control groups×100%. Anti-cancer effects were represented by maximum inhibition ratio Imax and inhibitory concentration 50 (IC50). Drawings were obtained with software MicroCal Origin. Inhibition curves of assay compounds for inhibiting the growth of tumor cells were fitted by the four-parameter program Logistic in the software so as to give the inhibitory concentration 50 (IC50:μg/ml) for inhibiting the proliferation of tumor cells.
# The exposure concentrations of the assay compounds were 0.001 μg/ml, 0.003 μg/ml, 0.009 μg/ml, 0.027 μg/ml, 0.082 μg/ml, 0.247 μg/ml, 0.741 μg/ml, 2.222 μg/ml, 6.667 μg/ml and 20 μg/ml. The exposure concentrations of adriamycin (as positive drugs) were 1.25 μg/ml, 5 μg/ml and 20 μg/ml. In 96-well plates, 3,000-5,000 cells were inoculated in each well. Four parallel assays were conducted for each concentration.
# [2] = tested on: PC-3 Cells; assay: Cytotoxicity assay (MTS/MTT), PC-3 cells; assay type: cell-based, human; conditions: for IC50: PC-3 Cells, read-out: Inhibitory Concentration 50 for Cell Growth (IC50)
# Protocol: as §1
# PC-3: human prostate cancer cell strains
# as §2, §3
# as §4, with “cells. […]” for “cells.”
# [3] = tested on: A431 Cells; assay: Cytotoxicity assay (MTS/MTT), A431 cells; assay type: cell-based, human
# Excerpt: A431: epidermoid cell strains
# [4] = tested on: THP-1; assay: Cytotoxicity assay (MTS/MTT), THP-1 cells; assay type: cell-based, human; conditions: read-out: Inhibitory Concentration 50 for Cell Growth (IC50)
# Excerpt: THP-1: human leukemia cell strains
# [5] = tested on: U937 Cells; assay: Cytotoxicity assay (MTS/MTT), U937 cells; assay type: cell-based, human; conditions: for IC50: U937 Cells, read-out: Inhibitory Concentration 50 for Cell Growth (IC50)
# Protocol: as §1
# U937: human lymphoma cell strains
# as §2, §3, §4
# The exposure concentrations of the assay compounds were 0.001 μg/ml, 0.003 μg/ml, 0.009 μg/ml, 0.027 μg/ml, 0.082 μg/ml, 0.247 μg/ml, 0.741 μg/ml, 2.222 μg/ml, 6.667 μg/ml and 20 μg/ml. […]
# [6] = tested on: NCI H460; assay: Cytotoxicity assay (MTS/MTT), NCI-H460 cells; assay type: cell-based, human; conditions: read-out: Inhibitory Concentration 50 for Cell Growth (IC50)
# Excerpt: NCI-H460: human lung cancer cell strains
# [7] = tested on: NCI H446; assay: Cytotoxicity assay (MTS/MTT), NCI-H446 cells; assay type: cell-based, human; conditions: read-out: Inhibitory Concentration 50 for Cell Growth (IC50)
# Protocol: as §1
# NCI-H446: human lung cancer cell strains
# as §2, §3
# (§5) The data were represented by x±s. […]
# [8] = tested on: K562; assay: Cytotoxicity assay (MTS/MTT), K562 cells; assay type: cell-based, human
# Protocol: as §1
# K562: human leukemia cell strain
# as §2, §3, §5
# [9] = tested on: Hep G2; assay: Cytotoxicity assay (MTS/MTT), Hep G2 cells; assay type: cell-based, human; conditions: read-out: Inhibitory Concentration 50 for Cell Growth (IC50)
# Protocol: as §1
# HePG-2: human liver cancer cell strains
# as §2, §3, §5
# [10] = tested on: A549; assay: Cytotoxicity assay (MTS/MTT), A549 cells; assay type: cell-based, human
# Protocol: as §1
# A549: human lung cancer cell strains
# as §2, §3, §5
# [11] = tested on: 786-O; assay: Cytotoxicity assay (MTS/MTT), 786-O cells; assay type: cell-based, human
# Protocol: as §1
# 786-O: human kidney cancer cell strains
# as §2, §3, §5
# [12] = tested on: DU-145; assay: Cytotoxicity assay (MTS/MTT), DU-145 cells; assay type: cell-based, human; conditions: read-out: Inhibitory Concentration 50 for Cell Growth (IC50)
# Protocol: as §1
# DU-145: human prostate cancer cell strains
# as §2, §3, §5
# [13] = tested on: Kunming mice; assay: Maximum tolerated dose (MTD) in vivo of mice
# Protocol: Assays on Maximum Tolerated Dose (MTD) In Vivo of Mice
# (1) Assay animals: 9 Kunming Mice, of which five were male and four were female, with a weight of 20-22 g (purchased from Lab Animals Center of Chinese Academy of Medical Sciences, License No. scxk (jin) 2005-0001)
# (2) Assay medicine: compound in Example 1
# Kunming mice were 9, of which 5 were male and 4 were female. Each mouse was administered the compound in Example 1 (20 mg/kg, iv) with a dose volume of 20 ml/kg.
# The process for preparing a solution of the compound in Example 1: 4.53 mg of the compound in Example 1 was weighed and dissolved by adding 40 μL of DMSO (dimethylsulfoxide). 340 μL of RH40 (polyoxyethylene castor oil) were added. After mixing homogeneously, 4.156 mL of physiological saline was added to the mixture. After mixing homogeneously, the mixture was filtered with 0.45 μm filter membrane to give a 1 mg/ml solution of the compound in Example 1.
# Observation time: 14 days
# Observation indicators: weight, appearance, breath, action, reflection, defecation
# [14] = 20 mg/kg via tail vein, observed for 14 days
# [15] = single intravenous injection 20 mg/kg, 9 mice, 14 days observation
structure (smiles),measurement,setting,value
"COc1cccc2c1C(=O)c1c(O)c3c(c(O)c1C2=O)CC(O)(C(=O)CO)CC3OC1CC(N2C(=O)CCC2=O)C(O)C(C)O1 (centres unmarked) [Example 4, 3′-succinimidyl epirubicin]",Inhibition Ratio (%),[1],62%
"COc1cccc2c1C(=O)c1c(O)c3c(c(O)c1C2=O)CC(O)(C(=O)CO)CC3OC1CC(N2C(=O)CCCC2=O)C(O)C(C)O1 (centres unmarked) [Example 5, 3′-glutarimido epirubicin]",Inhibition Ratio (%),[1],35%
"COc1cccc2c1C(=O)c1c(O)c3c(c(O)c1C2=O)C[C@@](O)(C(=O)CO)C[C@@H]3O[C@H]1C[C@H](N2C(=O)c3ccccc3C2=O)[C@@H](O)[C@H](C)O1 [Example 8, 3′-(benzo-(2,3)succinimidyl)epirubicin]",Inhibition Ratio (%),[1],71%
COc1cccc2c1C(=O)c1c(O)c3c(c(O)c1C2=O)C[C@@](O)(C(=O)CO)C[C@@H]3O[C@H]1C[C@H](N)[C@@H](O)[C@H](C)O1 [Epirubicin],IC50,[2]; Homo sapiens,0.11 µM
same,IC50,"[3]; Homo sapiens, A-431, read-out: Inhibitory Concentration 50 for Cell Growth (IC50)",0.018 µM
same,IC50,[4]; Homo sapiens,0.067 µM
same,IC50,"[5]; Homo sapiens, U-937",0.01 µM
same,IC50,[6]; Homo sapiens,0.025 µM
"COc1cccc2c1C(=O)c1c(O)c3c(c(O)c1C2=O)C[C@@](O)(C(=O)CO)C[C@@H]3O[C@H]1C[C@H](N2C(=O)C=CC2=O)[C@@H](O)[C@H](C)O1 [Example 6, 3′-maleimidyl epirubicin]",Inhibition Ratio (%),[1],43%
"COc1cccc2c1C(=O)c1c(O)c3c(c(O)c1C2=O)C[C@@](O)(C(=O)CO)C[C@@H]3O[C@H]1C[C@H](n2cccc2)[C@@H](O)[C@H](C)O1 [Example 1, 3′-pyrrolyl epirubicin]",IC50,"[1]; HL-60, read-out: Inhibitory Concentration 50 for Cell Growth (IC50)",0.357 µM
same,Inhibition Ratio (%),[1],80%
same,IC50,[2],0.01 µM
same,Effect on growth of tumor cell strain,[2]; human prostate cancer PC-3,strong inhibitory effects
same,IC50,[3]; read-out: Inhibitory Concentration 50 for Cell Growth (IC50),0.0063 µM
same,IC50,[4],0.009 µM
same,IC50,[5],0.012 µM
same,Effect on growth of tumor cell strain,[5]; lymphoma U937,strong inhibitory effects
same,IC50,[6],0.014 µM
same,IC50,[7],0.16 µM
same,IC50,"[8]; K562, read-out: Inhibitory Concentration 50 for Cell Growth (IC50)",0.044 µM
same,Effect on growth of tumor cell strain,[8]; human leukemia K562,strong inhibitory effects
same,IC50,[9],0.027 µM
same,IC50,"[10]; A549, read-out: Inhibitory Concentration 50 for Cell Growth (IC50)",0.206 µM
same,Effect on growth of tumor cell strain,[10]; lung cancer A549,strong inhibitory effects
same,IC50,"[11]; 786-O, read-out: Inhibitory Concentration 50 for Cell Growth (IC50)",0.074 µM
same,Effect on growth of tumor cell strain,[11]; kidney cancer 786-0,strong inhibitory effects
same,IC50,[12],0.0086 µM
same,Findings on dissection at the end of the test,"[13]; 20 mg/kg via tail vein, dissected after 14 days",no abnormal phenomena were observed
same,Change on the weights of the mice,[13]; [14],no significant change on the weights
same,Death of mice,[13]; [14],no animal died
same,"Other indicators (appearance, breath, action, reflection, defecation)",[13]; [14],not obviously abnormal
same,Death Number,[13]; [15],0
same,Mortality Rate (%),[13]; [15],0%
same,Average Weight (g) of Mice,"[13]; single intravenous injection 20 mg/kg, Day 1",20.9 g
same,Average Weight (g) of Mice,"[13]; single intravenous injection 20 mg/kg, Day 2",20.2 g
same,Average Weight (g) of Mice,"[13]; single intravenous injection 20 mg/kg, Day 3",20.4 g
same,Average Weight (g) of Mice,"[13]; single intravenous injection 20 mg/kg, Day 5",19.7 g
same,Average Weight (g) of Mice,"[13]; single intravenous injection 20 mg/kg, Day 6",20.2 g
same,Average Weight (g) of Mice,"[13]; single intravenous injection 20 mg/kg, Day 7",19.8 g
same,Average Weight (g) of Mice,"[13]; single intravenous injection 20 mg/kg, Day 8",20.0 g
same,Average Weight (g) of Mice,"[13]; single intravenous injection 20 mg/kg, Day 9",20.1 g
same,Average Weight (g) of Mice,"[13]; single intravenous injection 20 mg/kg, Day 10",20.5 g
same,Average Weight (g) of Mice,"[13]; single intravenous injection 20 mg/kg, Day 11",20.4 g
same,Average Weight (g) of Mice,"[13]; single intravenous injection 20 mg/kg, Day 12",20.4 g
same,Average Weight (g) of Mice,"[13]; single intravenous injection 20 mg/kg, Day 13",20.8 g
same,Average Weight (g) of Mice,"[13]; single intravenous injection 20 mg/kg, Day 14",21.1 g
"COc1cccc2c1C(=O)c1c(O)c3c(c(O)c1C2=O)C[C@@](O)(C(=O)CO)C[C@@H]3O[C@H]1C[C@H](N2C(=O)c3cccnc3C2=O)[C@@H](O)[C@H](C)O1 [Example 7, 3′-(pyridino-(2,3)succinimidyl)epirubicin]",Inhibition Ratio (%),[1],10%
